What was measured:
[1] = tested on: r(G4C2)exp-containing nuclear foci; assay: RNA FISH of foci in brain of +/+PWR500 mice; format: in vivo, mouse; conditions: compared to vehicle
Description: Therapeutic Efficacy in a c9ALS/FD mouse model. All animal studies were completed as approved by the Scripps Florida Institutional Animal Care and Use Committee. A total of 24 mice (12+/+PWR500 [7 Male and 5 Female] and 12 WT [6 Male and 6 Female]) mice, age- and gender-matched and ranging in age from 18-22 weeks old were used in therapeutic efficacy studies (Table 6). Mice were anesthetized by intraperitoneal (i.p.) injection of 10 mg/mL Ketamine:1 mg/mL Xylazine solution. Intracerebroventricular (ICV) stereotactic injections of 10 μL of 7 (33 nmol) were administered into the right ventricle using the following coordinates: 0.2 mm posterior and 1.0 mm lateral to the right from the bregma and 3 mm deep. Mice were treated with 7 or vehicle consisting of 1% DMSO in Saline. Three weeks post-treatment, mice were euthanized, and tissue was harvested for study.
Fluorescence in situ Hybridization (FISH) with Immunofluorescence (IF). Tissues were excised, and brain tissue was sliced at the midline. The right hemisphere was fresh frozen with OCT in 2-methylbutane in liquid nitrogen, and 10 μm thick sections were prepared using a cryostat. The slides were then stained as previously described (36). […] Average number of foci per nuclei was assessed for each sample and reported. Statistical analysis was measured using an unpaired t-test with Welch's correction.

WT C9ORF72 protein = assay: C9ORF72 expression by Western blotting; format: cell-based, human; conditions: Western blot, relative to β-actin
Description: Measuring C9ORF72 Expression Level by Western Blotting. Samples analyzed by Western blot were prepared as described in “Measuring poly(GP) Levels by Electrochemiluminescence”. Approximately 20 μg of total protein was separated on a 10% SDS-polyacrylamide gel, and then transferred to a PVDF membrane. The membrane was washed with 1×TBS and then blocked in 5% milk in 1×TBST for 1 h at room temperature. After washing with 1×TBST, C9orf72 antibody (GeneTex, GTX119776; 1:3000 dilution) was added in 1×TBST containing 5% milk overnight at 4° C. […] The membrane was washed with 1×TBST, and protein expression was quantified using SuperSignal West Pico Chemiluminescent Substrate (Pierce Biotechnology) per the manufacturer's protocol.
To quantify β-actin expression, the membrane was stripped using 1× Stripping Buffer (200 mM glycine, pH 2.2 and 0.1% SDS) followed by washing in 1×TBST. […] The membrane was washed with 1×TBST and incubated with 1:10,000 anti-rabbit IgG horseradish-peroxidase secondary antibody conjugate (Cell Signaling Technology) in 1×TBST containing 5% (w/v) milk for 1 h at room temperature. β-actin protein expression was quantified using SuperSignal West Pico Chemiluminescent Substrate (Pierce Biotechnology) per the manufacturer's protocol. […].

r(G4C2)exp = assay: ASO-Bind-Map target profiling in patient-derived LCLs; format: cell-based, human; conditions: ASO 100 nM
Description: Target profiling by ASO-Bind-Map. LCLs were first treated with compounds overnight at 37° C. and then transfected with G4C2-ASO (100 nM; Table 3). The cells were then incubated for another 24 h at 37° C. followed by extraction of total RNA as described above. The levels of various fragments were then measured by RT-qPCR as described above.

[2] = tested on: r(G4C2)exp-containing nuclear foci; assay: RNA foci imaging (RNA-FISH) in patient-derived LCLs; format: cell-based, human; conditions: 100 nM
Description: Imaging RNA Foci in LCLs. RNA foci containing r(G4C2)^exp were imaged using RNA fluorescence in situ hybridization (FISH) as previously described (13). Briefly, ALS patient-derived LCLs were treated with compound or ASO as described in “Measuring poly(GP) Levels by Electrochemiluminescence”. The cells were harvested, pelleted, and washed with 1×PBS. LCLs were then fixed in 2% paraformaldehyde in 1×PBS for 15 min at room temperature and then washed three times with 1×PBS. The fixed cells were then centrifuged, washed twice with 1×PBS, and seeded into poly lysine coated, glass bottom 96-well plates (˜5×10^5 cells/well). To ensure the cells adhered to the plate, they were incubated at 37° C. for >2 h. The cells were then incubated with 70% ethanol overnight at 37° C. The next day, LCLs were washed with 1×PBS for 15 min at room temperature, and then with 1×PBS containing 0.1% (v/v) Triton X-100 for 5 min at room temperature. […] Quantification was performed in triplicate with ˜200 nuclei counted per sample. Average number of foci per nuclei was assessed for each sample and reported. Statistical analysis was measured using an unpaired t-test with Welch's correction.

| Structure (SMILES) | number of r(G4C2)exp-containing nuclear foci ([1]; brain) | abundance of antisense r(G2C4)exp foci [1] | WT C9ORF72 protein levels (WT C9ORF72 protein) | intron 1 levels of C9orf72 mRNA in competition with G4C2-ASO (r(G4C2)exp) | reduction of number of r(G4C2)exp-containing nuclear foci [2] [%] |
| --- | --- | --- | --- | --- | --- |
| CCOC(=O)C1=C(Nc2ccccc2)S/C(=C\c2ccc(OCCOCCOCCOCCNC(=O)CCC(=O)N(CCOCCOCCOc3ccc4[nH]c5c(C)c6ccncc6c(C)c5c4c3)CCOCCOCCOc3ccc4[nH]c5c(C)c6ccncc6c(C)c5c4c3)c(O)c2)C1=O [Compound 7] | decreased | No effect | unchanged |  |  |
| Cc1c2ccncc2c(C)c2c1[nH]c1ccc(OCCOCCOCCNCCOCCOCCOc3ccc4[nH]c5c(C)c6ccncc6c(C)c5c4c3)cc12 [Compound 3] |  |  | no effect | dose-dependent increase | ~60 |
